Series [1] addresses T1, PSMA-expressing LS174T cells (LS174T-PSMA) (Homo sapiens, UniProt Q04609).
T1 construct: expressed in transfected cells; host or cells: LS174T colon carcinoma cells (human), stably transfected with pcDNA3.1-hPSMA
Briefly: Binding and internalization assay with 111In-labeled ligands. Type of series: cell-based. Particulars: 2 h 37 °C. How it is done:
Cell lines were purchased from the American Type Culture Collection. LS174T colon carcinoma cells were stably transfected with human PSMA using the plasmid pcDNA3.1-hPSMA and cultured in RPMI 1640 medium supplemented with 2 mM glutamine, 10% FCS, and 0.3 mg/ml G418 at 37 °C in a humidified atmosphere with 5% CO2 [5].
Binding and internalization characteristics of all ligands were compared using LS174T-PSMA and wildtype LS174T cells. Cells were cultured to confluency in 6-wells plates followed by incubation at 37 °C for 2 h in 1 ml binding buffer (RPMI/0.5% BSA) with 50,000 counts per minute (cpm) of ^111In-labeled ligand (0.1-0.25 pmol/well). Nonspecific binding was determined by coincubation with 2-(phosphonomethyl)pentane-1,5-dioic acid (2-PMPA, 21.57 µM). PSMA-specific binding was defined as nonspecific binding subtracted from total binding. To retrieve the membrane-bound fraction, cells were washed with PBS twice and incubated with acid buffer (0.1 M acetic acid, 154 mM NaCl, pH 2.6) for 10 minutes at 0 °C. After incubation, the membrane bound fraction (in acid buffer) was collected, cells were washed, lysed with 0.1 M NaOH and cell lysis (intercellular activity) was collected. Membrane-bound activity and intercellular activity fractions were measured in a gamma-counter (2480 WIZARD^2 Automatic Gamma Counter, PerkinElmer), [25]. Human serum was used to determine the in vitro serum stability of the multimodal ligands (0.8 µg/ml serum, 5 MBq/μg labeling). After incubation for 2 h at 37°C, serum proteins were precipitated by adding a 1:1 (v/v) volume of acetonitrile followed by 5 min of centrifugation at 3220×g. Stability was evaluated by RP-HPLC analysis after 2 h of incubation at 37 °C. […] Experimental details are described in the supplementary materials and methods.

Series [2] is described as follows: Lipophilicity, PBS/n-octanol. Type of series: physicochemical. Particulars: radiolabeled ligand. How it is done:
Tubes were vortexed vigorously for 1 min and centrifuged for 5 min at 201×g for phase separation. The concentration of radioactivity in a defined volume of each layer was measured in a well-type gamma-counter.

The next series in a line: In vitro serum stability. Type of series: in vitro ADME, human. The following applies: 2 h, 37°C, RP-HPLC. How it is done:
(§1) Binding and internalization characteristics of all ligands were compared using LS174T-PSMA and wildtype LS174T cells. Cells were cultured to confluency in 6-wells plates followed by incubation at 37 °C for 2 h in 1 ml binding buffer (RPMI/0.5% BSA) with 50,000 counts per minute (cpm) of ^111In-labeled ligand (0.1-0.25 pmol/well). Nonspecific binding was determined by coincubation with 2-(phosphonomethyl)pentane-1,5-dioic acid (2-PMPA, 21.57 µM). PSMA-specific binding was defined as nonspecific binding subtracted from total binding. To retrieve the membrane-bound fraction, cells were washed with PBS twice and incubated with acid buffer (0.1 M acetic acid, 154 mM NaCl, pH 2.6) for 10 minutes at 0 °C. After incubation, the membrane bound fraction (in acid buffer) was collected, cells were washed, lysed with 0.1 M NaOH and cell lysis (intercellular activity) was collected. Membrane-bound activity and intercellular activity fractions were measured in a gamma-counter (2480 WIZARD^2 Automatic Gamma Counter, PerkinElmer), [25]. Human serum was used to determine the in vitro serum stability of the multimodal ligands (0.8 µg/ml serum, 5 MBq/μg labeling). After incubation for 2 h at 37°C, serum proteins were precipitated by adding a 1:1 (v/v) volume of acetonitrile followed by 5 min of centrifugation at 3220×g. Stability was evaluated by RP-HPLC analysis after 2 h of incubation at 37 °C. […]

For series [3], the system named is LS174T-PSMA and LS174T xenografts. The series is described as follows: Biodistribution of 111In-labeled multimodal ligands. In kind it is in vivo, BALB/c nude mice. Particulars: 0.3 nmol, 2 h p.i. How it is done:
Animal experiments were performed in 8-10 weeks old male BALB/c nude mice (Janvier). Animals were housed in individually ventilated cages (Blue line IVC, 4-5 mice per cage) under nonsterile standard conditions with cage enrichment present and free access to chlorophyll-free animal chow (Sniff GmbH) and water. Mice were subcutaneously inoculated with 3.0 x 10^6 LS174T-PSMA cells in the left flank and 1.5 × 10^6 LS174T cells in the right flank, diluted in 200 μL of complete RPMI 1640 medium. Eleven days after tumor cell inoculation when xenografts were approximately 0.1 cm^3, tracers were injected intravenously via the tail vein. The researchers were not blinded for the experimental groups and tumor-bearing mice were block-randomized into groups based on tumor size. All experiments were approved by the institutional Animal Welfare Committee of the Radboud university medical center and were conducted in accordance to the guidelines of the Revised Dutch Act on Animal Experimentation.
Mice were injected intravenously with 10 MBq ^111In-labeled PSMA ligands (0.3 nmol, molar activity 33.3 MBq/nmol) in PBS/0.5% BSA. Two hours post injection, mice were euthanized by CO2/O2-asphyxation and images were acquired with the IVIS fluorescence imaging system (Xenogen VivoVision IVIS Lumina II, Caliper Life Sciences), using an acquisition time of 10 s. Subsequently, µSPECT/CT images were acquired (U-SPECT II, MILabs) with a 1.0 mm diameter pinhole mouse collimator tube [26]. Mice were scanned for 30 min followed by a CT scan (spatial resolution 160 μm, 65 kV, 615 μA) for anatomical reference. µSPECT/CT scans were reconstructed with MILabs reconstruction software, using an ordered-subset expectation maximization algorithm, energy windows 154 - 188 keV and 220-270 keV, 3 iterations, 16 subsets, voxel size of 0.4 mm. SPECT/CT scans were analyzed and maximum intensity projections (MIPs) were created using the Inveon Research Workplace software version 4.1 (Siemens Preclinical Solutions). NIRF images were analyzed using Living Image software version 4.2 (Caliper Life Sciences). Tissues of interest were dissected, weighed and measured for radioactivity in a gamma-counter as described above. In the fluorescence-guided surgery feasibility study, pre-operative imaging was performed to visualize tumor tissue. After white light resection, NIRF imaging was repeated to assess if any remaining tumor was present.

In series [4] the target is T2, PSMA-expressing LS174T-PSMA cells (Homo sapiens, UniProt Q04609).
T2 construct: expressed in transfected cells; host or cells: LS174T colon carcinoma cells (human), stably transfected with pcDNA3.1-hPSMA
T2 sequence (Q04609 whole entry): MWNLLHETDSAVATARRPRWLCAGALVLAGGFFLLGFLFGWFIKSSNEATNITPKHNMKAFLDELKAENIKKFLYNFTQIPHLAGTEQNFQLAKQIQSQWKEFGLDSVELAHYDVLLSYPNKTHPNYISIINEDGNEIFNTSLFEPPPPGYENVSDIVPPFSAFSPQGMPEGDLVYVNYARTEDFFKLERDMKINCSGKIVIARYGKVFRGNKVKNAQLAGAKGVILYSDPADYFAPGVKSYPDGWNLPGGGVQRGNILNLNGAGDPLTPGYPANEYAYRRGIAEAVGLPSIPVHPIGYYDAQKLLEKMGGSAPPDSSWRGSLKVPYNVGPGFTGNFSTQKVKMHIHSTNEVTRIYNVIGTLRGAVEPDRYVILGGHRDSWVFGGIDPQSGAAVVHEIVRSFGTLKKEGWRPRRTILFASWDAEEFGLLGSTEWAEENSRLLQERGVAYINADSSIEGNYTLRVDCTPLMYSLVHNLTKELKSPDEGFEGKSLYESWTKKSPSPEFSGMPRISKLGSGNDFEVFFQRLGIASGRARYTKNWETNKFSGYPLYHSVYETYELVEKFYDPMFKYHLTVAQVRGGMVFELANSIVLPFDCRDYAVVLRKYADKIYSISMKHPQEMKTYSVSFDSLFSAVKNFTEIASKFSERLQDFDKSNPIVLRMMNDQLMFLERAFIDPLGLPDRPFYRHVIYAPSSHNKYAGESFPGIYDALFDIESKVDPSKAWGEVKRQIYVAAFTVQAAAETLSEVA
The series is described as follows: Competitive binding assay (IC50). Particulars: on ice 2 h. How it is done:
as §1, with “After incubation, the membrane bound fraction (in acid buffer) was collected, cells were washed, lysed with 0.1 M NaOH and cell lysis (intercellular activity) was collected.” left out, “Human serum was used to determine the in vitro serum stability of the multimodal ligands (0.8 µg/ml serum, 5 MBq/μg labeling). After incubation for 2 h at 37°C, serum proteins were precipitated by adding a 1:1 (v/v) volume of acetonitrile followed by 5 min of centrifugation at 3220×g.” left out
(§2) Scatchard analysis was performed to determine the dissociation constant (Kd) of the N064 ligand. […] Non-specific binding was determined by coincubation with 1 µM PSMA-617. […] Cell lysis was collected from the plate and the cell-associated activity was measured in a γ-counter. […] To determine PSMA antigen density per cell and the Kd of multimodal ligands, data were analyzed by linear regression using GraphPad Prism software. […]

Series [5] deals with T3, LS174T-PSMA-positive cells (Homo sapiens, UniProt Q04609).
T3 construct: expressed in transfected cells; host or cells: LS174T colon carcinoma cells (human), stably transfected with pcDNA3.1-hPSMA
T3 sequence (Q04609 whole entry): as above
The series is described as follows: Scatchard analysis (Kd). In kind it is binding. Particulars: on ice 4 h. How it is done: as §1, with “After incubation, the membrane bound fraction (in acid buffer) was collected, cells were washed, lysed with 0.1 M NaOH and cell lysis (intercellular activity) was collected.” left out, “Human serum was used to determine the in vitro serum stability of the multimodal ligands (0.8 µg/ml serum, 5 MBq/μg labeling). After incubation for 2 h at 37°C, serum proteins were precipitated by adding a 1:1 (v/v) volume of acetonitrile followed by 5 min of centrifugation at 3220×g.” left out
as §2

T1 sequence (Q04609 whole entry): as above

The LogD is lipophilicity at a set pH, counting ionised and neutral species. Read a high LogD as higher lipophilicity. As to `C[Si](C)(CCC[N+](CCCS(=O)(=O)O)(CCCS(=O)(=O)O)CCCS(=O)(=O)O)O[Si-2]123(O[Si](C)(C)CCC[N+](CCCS(=O)(=O)O)(CCCS(=O)(=O)O)CCCS(=O)(=O)O)n4c5c6ccccc6c4N=C4c6cccc(OCCCOC(=O)NCCCCCC(=O)NCCCC[C@H](NC(=O)CCC(C(=O)O)N7CCN(CC(=O)O)CCN(CC(=O)O)CCN(CC(=O)O)CC7)C(=O)NCCOCCOCCOCCOCCC(=O)N[C@H](Cc7ccccc7)C(=O)N[C@@H](CCC(=O)O)C(=O)N[C@@H](CCC(=O)O)C(=O)NCCCCCC(=O)NCCCC[C@H](NC(=O)N[C@@H](CCC(=O)O)C(=O)O)C(=O)O)c6C(=[N+]41)N=c1c4ccccc4c(n12)=NC1=[N+]3C(=N5)c2ccccc21.[Na+].[Na+].[Na+].[Na+]` (stereo partly shown) [N111], in series [1], the Internalized fraction came out at 0.9 ± 0.06 and the Membrane bound fraction was 0.4 ± 0.05. This compound also yielded a LogD in series [2] of -2.4 ± 0.15. Besides, the “Stability in human serum” value in “In vitro serum stability” was “stable”. In series [3], this compound gave an Adrenals of 0.9 %ID/g, a Blood of 0.2 %ID/g, a Bone of 0.3 %ID/g and a Bone marrow of 0.3 %ID/g. In series [3], this compound came in with a Duodenum of 0.2 %ID/g, a Heart of 0.3 %ID/g, a Kidney of 59 %ID/g and a Liver of 0.5 %ID/g. Further, in series [3], the Lung worked out at 0.4 %ID/g, the Muscle came out at 0.1 %ID/g, the Pancreas is on record as 0.2 %ID/g and the Prostate is listed as 0.5 %ID/g. In series [3], the Salivary glands came out at 0.4 %ID/g, the Spleen turned out to be 1.3 %ID/g, the Stomach is recorded as 0.3 %ID/g and the “Tumor+ LS174T-PSMA” value was determined as 6.5 %ID/g. Moreover, in series [3], the “Tumor- LS174T” value came out at 0.4 %ID/g, the Tumor/Blood ratio was determined as 41.1, the Tumor/Kidney ratio was 0.2 and the Tumor/Liver ratio was 13.7. In series [3], the Tumor/Muscle ratio is recorded as 71.9, the Tumor/Negative tumor ratio amounted to 24.1, the Tumor/Prostate ratio was determined as 17.2 and the Tumor/Salivary gland ratio is reported as 21.5. For the same compound, the Tumor/Spleen ratio in series [3] is reported as 5.7.

What is called IC50 is the concentration needed to halve the response being measured. What is called Kd is the free concentration of one partner at which half of the binding sites on the other are occupied at equilibrium, for simple one-to-one binding. Read a low Kd as higher affinity. `O=C(O)CC[C@H](NC(=O)N[C@@H](CCCCNC(=O)[C@H](Cc1ccc2ccccc2c1)NC(=O)[C@H]1CC[C@H](CNC(=O)CN2CCN(CC(=O)O)CCN(CC(=O)O)CCN(CC(=O)O)CC2)CC1)C(=O)O)C(=O)O` [PSMA-617] showed a concentration for half-maximal inhibition (IC50) in series [4] of 52.7 nM. This compound yielded a Kd in series [5] of 15 ± 1.1 nM.

For the origin of these results see paper PMC7778589, “Photosensitizer-based multimodal PSMA-targeting ligands for intraoperative detection of prostate cancer” (Theranostics, 2021).
